Values belong to the molecule of their own block, whether it stands above or below them.
Legend:
[1] = target: T1, NhaA (sodium/proton antiporter), dimeric NhaA-GFP (Escherichia coli, UniProt P13738); experiment: FSEC-TS titration of dimer stabilization, nonlinear regression; format: binding; conditions: pH 7.5, 150 mM NaCl, 0.03% DDM plus 1% beta-OG, heated at 47 °C; 19 CL concentrations; dimer interface site; read-out: CL dependent oligomerization concentration (midpoint)
T1 construct: full-length, C-terminal GFP-8His fusion (pWaldo GFPd), expressed in E. coli Lemo21(DE3), purified in DDM; homodimer
T1 sequence (P13738 1-388): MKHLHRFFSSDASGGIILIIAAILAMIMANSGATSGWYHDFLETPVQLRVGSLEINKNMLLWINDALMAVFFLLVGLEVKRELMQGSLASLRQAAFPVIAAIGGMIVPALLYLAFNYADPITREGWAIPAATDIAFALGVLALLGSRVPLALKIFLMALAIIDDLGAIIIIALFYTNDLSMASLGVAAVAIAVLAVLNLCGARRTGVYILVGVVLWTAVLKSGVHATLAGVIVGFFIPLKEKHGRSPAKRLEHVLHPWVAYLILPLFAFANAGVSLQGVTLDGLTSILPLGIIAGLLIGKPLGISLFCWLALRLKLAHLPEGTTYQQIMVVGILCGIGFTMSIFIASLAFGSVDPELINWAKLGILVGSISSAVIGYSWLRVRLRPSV

[2] = target: T1, NhaA (sodium/proton antiporter), dimeric NhaA-GFP; experiment: FSEC-TS thermal shift, purified NhaA-GFP; format: binding; conditions: purified in DDM; dimer
[3] = target: T2, human CMP–sialic acid transporter SLC35A1 (human CMP–Sia) (Homo sapiens, UniProt P78382); experiment: GFP-TS titration, one-site fit, DDM-solubilized membranes (also ITC on purified protein)
T2 construct: full-length, GFP-8His fusion (pDDGFP-2), expressed in S. cerevisiae FGY217; DDM-solubilized membranes or purified
T2 sequence (P78382 1-337): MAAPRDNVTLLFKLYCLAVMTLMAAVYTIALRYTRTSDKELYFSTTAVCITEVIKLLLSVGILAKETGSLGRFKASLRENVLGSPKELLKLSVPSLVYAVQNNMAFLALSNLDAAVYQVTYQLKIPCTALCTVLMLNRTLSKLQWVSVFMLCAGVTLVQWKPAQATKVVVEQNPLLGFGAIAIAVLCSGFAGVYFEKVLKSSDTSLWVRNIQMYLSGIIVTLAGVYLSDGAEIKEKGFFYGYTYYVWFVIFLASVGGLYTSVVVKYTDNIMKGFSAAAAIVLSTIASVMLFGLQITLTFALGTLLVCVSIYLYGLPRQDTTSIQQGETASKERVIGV
Text: GFP-TS titration, one-site fit, DDM-solubilized membranes (also ITC on purified protein) on human CMP–sialic acid transporter SLC35A1 (human CMP–Sia) | we used the GFP-TS to determine CMP binding affinities (Kd) for the plant and human

[4] = target: T3, putative Zea mays CMP–sialic acid transporter (Z. mays CMP–Sia) (Zea mays, UniProt B4FZ94); experiment: GFP-TS thermostabilization, DDM-solubilized membranes; format: binding; conditions: 5 mM ligand, heated at 54 °C, pH 7.5, 150 mM NaCl, DDM plus 1% beta-OG
T3 construct: gene ZEAMMB73_Zm00001d046060; full-length synthesized clone, GFP-8His fusion (pDDGFP-2), expressed in S. cerevisiae FGY217; DDM-solubilized membranes or purified
T3 sequence (B4FZ94 1-322): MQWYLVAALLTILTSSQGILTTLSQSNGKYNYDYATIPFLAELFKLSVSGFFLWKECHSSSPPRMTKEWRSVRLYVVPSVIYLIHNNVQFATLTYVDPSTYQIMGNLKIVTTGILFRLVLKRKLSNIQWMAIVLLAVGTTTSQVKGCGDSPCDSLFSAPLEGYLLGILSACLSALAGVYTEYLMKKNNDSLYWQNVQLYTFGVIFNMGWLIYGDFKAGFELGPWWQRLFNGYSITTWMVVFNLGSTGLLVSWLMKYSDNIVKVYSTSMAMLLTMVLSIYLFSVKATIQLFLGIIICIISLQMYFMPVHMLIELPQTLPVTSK

[5] = target: T2, human CMP–sialic acid transporter SLC35A1 (human CMP–Sia); experiment: as above; format: binding; conditions: 5 mM ligand, heated at 42 °C, pH 7.5, 150 mM NaCl, DDM plus 1% beta-OG
[6] = target: T4, human NHA2 (Homo sapiens, UniProt Q86UD5); experiment: GFP-TS lipid screen, purified GFP fusion; format: binding; conditions: 3 mg/mL lipid, heated at apparent Tm + 5 °C, pH 7.5, 150 mM NaCl, DDM plus 1% beta-OG
T4 construct: gene SLC9B2; GFP-8His fusion (pDDGFP-2), expressed in S. cerevisiae FGY217, purified in DDM
T4 sequence (Q86UD5 1-537): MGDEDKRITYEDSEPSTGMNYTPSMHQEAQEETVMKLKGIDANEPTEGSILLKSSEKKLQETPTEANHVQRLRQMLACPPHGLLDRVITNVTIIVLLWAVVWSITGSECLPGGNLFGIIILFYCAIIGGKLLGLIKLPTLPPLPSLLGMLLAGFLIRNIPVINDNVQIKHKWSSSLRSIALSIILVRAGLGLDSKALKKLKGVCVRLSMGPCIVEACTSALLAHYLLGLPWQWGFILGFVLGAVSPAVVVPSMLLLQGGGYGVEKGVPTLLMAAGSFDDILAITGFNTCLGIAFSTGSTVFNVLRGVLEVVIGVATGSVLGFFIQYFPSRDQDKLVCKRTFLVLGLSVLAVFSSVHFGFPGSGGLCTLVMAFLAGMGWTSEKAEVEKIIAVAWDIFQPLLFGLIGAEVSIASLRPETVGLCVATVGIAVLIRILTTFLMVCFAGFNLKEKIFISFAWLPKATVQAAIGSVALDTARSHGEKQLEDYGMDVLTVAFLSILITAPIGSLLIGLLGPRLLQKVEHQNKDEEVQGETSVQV

EC50 [1]: 1400 µM | apparent Tm without to with cardiolipin [2]: 42 to 53 °C
SMILES: CCCCCCCC/C=C\CCCCCCCC(=O)OC[C@H](COP(=O)(O)OCC(O)COP(=O)(O)OC[C@@H](COC(=O)CCCCCCC/C=C\CCCCCCCC)OC(=O)CCCCCCC/C=C\CCCCCCCC)OC(=O)CCCCCCC/C=C\CCCCCCCC (stereo partly drawn) [CL, cardiolipin (18:1)]

Kd [3]: 19.5 ± 3.8 µM
SMILES: Nc1ccn([C@@H]2O[C@H](COP(=O)(O)O)[C@@H](O)[C@H]2O)c(=O)n1 [CMP]

SMILES: CC(=O)N[C@H]1[C@H]([C@H](O)[C@H](O)CO)O[C@](OP(=O)(O)OC[C@H]2O[C@@H](n3ccc(N)nc3=O)[C@H](O)[C@@H]2O)(C(=O)O)C[C@@H]1O [CMP–sialic acid]
supernatant fluorescence after heating [4]: higher thermostablization for CMP–sialic acid as compared to the addition of sialic acid only | supernatant fluorescence after heating [5]: almost identical stabilization profile for substrates was observed for the human CMP–sialic acid transporter

SMILES: CCCCCCCC/C=C\CCCCCCCC(=O)OC[C@H](COP(=O)(O)OCC(O)CO)OC(=O)CCCCCCC/C=C\CCCCCCCC (stereo partly drawn) [DOPG]
supernatant fluorescence after heating [6]: human NHA2, where the addition of PG was clearly stabilizing

Source: publication PMC6185904 (Nature Communications, 2018)
